Measured values from patent US4868321A, “Isothiocyanate intermediates” (FMC Corporation, priority 1988, dated 1989).

Legend:
Format in all cases: in vivo
[1] = test system: Johnsongrass; test: Postemergence Herbicidal Activity, Johnsongrass; conditions: Sorghum halepense, post-emergence
Outline: (§1)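 Compounds were applied at rates given in kilograms per hectare, and herbicidal effect was scored as percent control.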

[2] = test system: Velvetleaf; test: Postemergence Herbicidal Activity, Velvetleaf; conditions: Abutilon theophrasti, post-emergence
Outline: (§2)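 Applications are made pre- or postemergence from 50/50 acetone/water solutions of each compound. Effect is recorded as % C at the stated kg/ha rate.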

[3] = test system: Barnyardgrass; test: Postemergence Herbicidal Activity, Barnyardgrass; conditions: Echinochloa crus-galli, post-emergence
Outline: as §1

[4] = test system: Field Corn; test: Postemergence Herbicidal Activity, Field Corn; conditions: Zea mays, post-emergence
Outline: (§3)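 Herbicidal response was graded as percent control. Compound rates were in kg/ha.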

[5] = test system: Johnsongrass; test: Preemergence Herbicidal Activity, Johnsongrass; conditions: Sorghum halepense, pre-emergence
Outline: as §1

[6] = test system: Cotton; test: Postemergence Herbicidal Activity, Cotton; conditions: Gossypium hirsutum, post-emergence
Outline: as §2

[7] = test system: Wheat; test: Preemergence Herbicidal Activity, Wheat; conditions: Triticum aestivum, pre-emergence
Outline: as §3

[8] = test system: Field Bindweed; test: Preemergence Herbicidal Activity, Field Bindweed; conditions: pre-emergence
Outline: as §2

[9] = test system: Morningglory; test: Postemergence Herbicidal Activity, Morningglory; conditions: Ipomoea, post-emergence
Outline: as §2

[10] = test system: Field Corn; test: Preemergence Herbicidal Activity, Field Corn; conditions: Zea mays, pre-emergence
Outline: as §3

[11] = test system: Morningglory; test: Preemergence Herbicidal Activity, Morningglory; conditions: Ipomoea, pre-emergence
Outline: as §2

[12] = test system: Rice; test: Postemergence Herbicidal Activity, Rice; conditions: Oryza sativa, post-emergence
Outline: as §3

[13] = test system: Green Foxtail; test: Preemergence Herbicidal Activity, Green Foxtail; conditions: Setaria viridis, pre-emergence
Outline: as §1

[14] = test system: Rice; test: Preemergence Herbicidal Activity, Rice; conditions: Oryza sativa, pre-emergence
Outline: as §3

[15] = test system: Velvetleaf; test: Preemergence Herbicidal Activity, Velvetleaf; conditions: Abutilon theophrasti, pre-emergence
Outline: as §2

[16] = test system: Soybean; test: Postemergence Herbicidal Activity, Soybean; conditions: Glycine max, post-emergence
Outline: as §3

[17] = test system: Barnyardgrass; test: Preemergence Herbicidal Activity, Barnyardgrass; conditions: Echinochloa crus-galli, pre-emergence
Outline: as §1

[18] = test system: Green Foxtail; test: Postemergence Herbicidal Activity, Green Foxtail; conditions: Setaria viridis, post-emergence
Outline: as §1

[19] = test system: Field Bindweed; test: Postemergence Herbicidal Activity, Field Bindweed; conditions: post-emergence
Outline: as §2

[20] = test system: Soybean; test: Preemergence Herbicidal Activity, Soybean; conditions: Glycine max, pre-emergence
Outline: as §3

[21] = test system: Wheat; test: Postemergence Herbicidal Activity, Wheat; conditions: Triticum aestivum, post-emergence
Outline: as §3

[22] = test system: Cotton; test: Preemergence Herbicidal Activity, Cotton; conditions: Gossypium hirsutum, pre-emergence
Outline: as §2

SMILES: CCS(=O)(=O)N(c1cc(-n2nnn(CCCF)c2=O)c(Cl)cc1F)S(=O)(=O)CC [Compound 37, 1-[2-Chloro-4-fluoro-5-[bis(N--ethylsulfonyl)amino]phenyl]-4,5-dihydro-4-(3-fluoropropyl)-5H--tetrazol-5-one]
- pest or weed control at 2000 g/ha ([1]; 2.0 kg/ha): 20%
- pest or weed control at 2000 g/ha ([2]; 2.0 kg/ha): 80%
- pest or weed control at 2000 g/ha ([3]; 2.0 kg/ha): 30%
- plant injury at 2000 g/ha ([4]; 2.0 kg/ha): 20%
- pest or weed control at 2000 g/ha ([5]; 2.0 kg/ha): 70%
- plant injury at 2000 g/ha ([6]; 2.0 kg/ha): 70%
- plant injury at 2000 g/ha ([7]; 2.0 kg/ha): 30%
- pest or weed control at 2000 g/ha ([8]; 2.0 kg/ha): 20%
- pest or weed control at 2000 g/ha ([9]; 2.0 kg/ha): 50%
- plant injury at 2000 g/ha ([10]; 2.0 kg/ha): 20%
- pest or weed control at 2000 g/ha ([11]; 2.0 kg/ha): 20%
- plant injury at 2000 g/ha ([12]; 2.0 kg/ha): 20%
- pest or weed control at 2000 g/ha ([13]; 2.0 kg/ha): 50%
- plant injury at 2000 g/ha ([14]; 2.0 kg/ha): 0%
- pest or weed control at 2000 g/ha ([15]; 2.0 kg/ha): 100%
- plant injury at 2000 g/ha ([16]; 2.0 kg/ha): 40%
- pest or weed control at 2000 g/ha ([17]; 2.0 kg/ha): 80%
- pest or weed control at 2000 g/ha ([18]; 2.0 kg/ha): 50%
- pest or weed control at 2000 g/ha ([19]; 2.0 kg/ha): 40%
- plant injury at 2000 g/ha ([20]; 2.0 kg/ha): 0%
- plant injury at 2000 g/ha ([21]; 2.0 kg/ha): 20%
- plant injury at 2000 g/ha ([22]; 2.0 kg/ha): 10%

SMILES: O=c1n(CCCF)nnn1-c1cc(NS(=O)(=O)C(F)(F)F)c(Cl)cc1F [Compound 30, 1-[4-Chloro-2-fluoro-5-(N-trifluoromethylsulfonylamino)phenyl]-1,4-dihydro-4-(3-fluoropropyl)-5H-tetrazol-5-one]
- pest or weed control at 250 g/ha ([1]; 0.25 kg/ha): 0%
- pest or weed control at 250 g/ha ([2]; 0.25 kg/ha): 100%
- pest or weed control at 250 g/ha ([3]; 0.25 kg/ha): 10%
- plant injury at 250 g/ha ([4]; 0.25 kg/ha): 30%
- pest or weed control at 250 g/ha ([5]; 0.25 kg/ha): 60%
- plant injury at 250 g/ha ([6]; 0.25 kg/ha): 90%
- plant injury at 250 g/ha ([7]; 0.25 kg/ha): 0%
- pest or weed control at 250 g/ha ([8]; 0.25 kg/ha): 95%
- pest or weed control at 250 g/ha ([9]; 0.25 kg/ha): 80%
- plant injury at 250 g/ha ([10]; 0.25 kg/ha): 10%
- pest or weed control at 250 g/ha ([11]; 0.25 kg/ha): 60%
- plant injury at 250 g/ha ([12]; 0.25 kg/ha): 10%
- pest or weed control at 250 g/ha ([13]; 0.25 kg/ha): 10%
- plant injury at 250 g/ha ([14]; 0.25 kg/ha): 20%
- pest or weed control at 250 g/ha ([15]; 0.25 kg/ha): 100%
- plant injury at 250 g/ha ([16]; 0.25 kg/ha): 40%
- pest or weed control at 250 g/ha ([17]; 0.25 kg/ha): 0%
- pest or weed control at 250 g/ha ([18]; 0.25 kg/ha): 0%
- pest or weed control at 250 g/ha ([19]; 0.25 kg/ha): 70%
- plant injury at 250 g/ha ([20]; 0.25 kg/ha): 10%
- plant injury at 250 g/ha ([21]; 0.25 kg/ha): 10%
- plant injury at 250 g/ha ([22]; 0.25 kg/ha): 50%

SMILES: CCS(=O)(=O)N(c1cc(-n2nnn(CCCF)c2=O)c(F)cc1F)S(=O)(=O)CC [Compound 20, 1-(2,4-difluoro-5-[bis(N--ethylsulfonyl)amino]phenyl]-1,4-dihydro-4-(3-fluoropropyl)-5H--tetrazol-5-one]
- pest or weed control at 500 g/ha ([1]; 0.5 kg/ha): 30%
- pest or weed control at 500 g/ha ([2]; 0.5 kg/ha): 100%
- pest or weed control at 500 g/ha ([3]; 0.5 kg/ha): 30%
- plant injury at 500 g/ha ([4]; 0.5 kg/ha): 20%
- pest or weed control at 500 g/ha ([5]; 0.5 kg/ha): 90%
- plant injury at 500 g/ha ([6]; 0.5 kg/ha): 90%
- plant injury at 500 g/ha ([7]; 0.5 kg/ha): 30%
- pest or weed control at 500 g/ha ([8]; 0.5 kg/ha): 20%
- pest or weed control at 500 g/ha ([9]; 0.5 kg/ha): 90%
- plant injury at 500 g/ha ([10]; 0.5 kg/ha): 90%
- pest or weed control at 500 g/ha ([11]; 0.5 kg/ha): 70%
- plant injury at 500 g/ha ([12]; 0.5 kg/ha): 20%
- pest or weed control at 500 g/ha ([13]; 0.5 kg/ha): 95%
- plant injury at 500 g/ha ([14]; 0.5 kg/ha): 70%
- pest or weed control at 500 g/ha ([15]; 0.5 kg/ha): 100%
- plant injury at 500 g/ha ([16]; 0.5 kg/ha): 30%
- pest or weed control at 500 g/ha ([17]; 0.5 kg/ha): 90%
- pest or weed control at 500 g/ha ([18]; 0.5 kg/ha): 40%
- pest or weed control at 500 g/ha ([19]; 0.5 kg/ha): 30%
- plant injury at 500 g/ha ([20]; 0.5 kg/ha): 20%
- plant injury at 500 g/ha ([21]; 0.5 kg/ha): 50%
- plant injury at 500 g/ha ([22]; 0.5 kg/ha): 90%
